Experimental data from patent publication US6958360B2, “Attractant pheromone for the Colorado potato beetle” (The United States of America as represented by the …, priority 2001, dated 2005).
Marks after values point to notes of the source that are not given here.

How the values were obtained:
[1] = tested on: Colorado potato beetle (CPB); assay: Field test, baited pitfall traps; assay type: in vivo, Leptinotarsa decemlineata
Protocol: Insects: Insects were maintained under the same regimen as for laboratory bioassays. Prior to release in the field, adult CPB were combined into pint containers with moistened paper and potato foliage in groups of 25. Insects were removed from foliage ca. 3 hours prior to release.
Chemical treatments: (S)-CPB I vs. control. CPB I was dissolved into a carrier solution of 20% polyethylene glycol, 42% methanol, 25% glycerol, and 13% distilled water at a concentration of 1 μg/μl. For treatment lures, 500 μl were injected into 1″ long cigarette filters (500 μg CPBI/lure). Control lures consisted of 1″ cigarette filters treated with 500 μl of the carrier solution. Lures were prepared and placed into plastic zip-lock bags for transport to the field. (S)-CPB I+3-component plant blend vs. 3-component plant blend. (Z)-3-hexenyl acetate, (±)-linalool, and methyl salicylate (10 μl each) were added to 3 ml of the carrier solution for a total concentration of 1%. This solution was split into two 1.5 ml samples and CPB I dissolved into one of the samples at a concentration of 1 μg/μl. One treatment consisted of 500 μl of 1% 3-component plant blend injected into 1″ cigarette filters, 500 μl of 1% 3-component plant blend+1 μg/μl CPB I (500 μg CPB I/lure) injected into 1″ cigarette filters comprised the second treatment. Lures were prepared and placed into zip-lock bags for transport to the field.
Experimental procedure: Six pitfall traps (22 cm diam.×21 cm depth) were set in a hexagonal pattern 6 m diameter in an isolated grass field mowed one day prior to release of insects. One lure was attached to a 1 m vertical yellow posts set through the center of each pitfall trap, with treatment and controls alternating around the hexagonal array. Tacky-trap was laced along the rim of each pitfall trap, and on the center post at trap level, to prevent insect escape. […]
Statistical analysis: Field tests were assessed for significant differences by a paired t-test (Ostle, B., Statistics in Research (1963), 2nd ed., The Iowa State University Press, Ames, Iowa).

[2] = tested on: Colorado potato beetle (CPB); assay: Open Y-track olfactometer behavioral bioassay, optical isomers vs solvent control; assay type: in vivo, Leptinotarsa decemlineata; details: for orientation preference (in words): serial source loads 0.0001 to 1.0 μg vs solvent control, male and female
Protocol: Chemical blends and plant foliage were tested for behavioral activity in an open Y-track olfactometer modified after Visser and Piron (Visser, J. H., and P. G. M. Piron, Proceedings of the Section Experimental and Applied Entomology of the Netherlands Entomological Society Amsterdam, 9: 41-46 (1998)) and described in detail by Dickens (Dickens, J. C., Agric. Forest Entomol., 1: 47-54 (1999)). In brief, odorous stimuli emanating from volatile collections from CPB males feeding on potato plants or the male-specific compound on filter paper discs (2.5 cm dia.; Whatman™ #1 filter paper) in Ehrlenmeyer flasks were delivered to either side of the device. Hydrocarbon free air that was humidified by passing through distilled water carried the odor molecules to either arm of the bioassay apparatus. Treatments were replenished after 30 min of use in the bioassay apparatus. Airflow was regulated to 1 l/min by flowmeters. Experiments were conducted in a darkened room at 22° C. in which the only source of light was that associated with the bioassay device. For all bioassays, at least 20 males and 20 females were tested.
Volatile collections from male CPB feeding for three hours on a potato plant and serial dilutions of the male specific compound were tested as 10 μl aliquots placed on a filter paper disc as described above. The male specific compound was tested at 1.0 μg/10 μl solvent (hexane) and in a dilution series ranging from 0.0001 to 1.0 μg/10 μl solvent.
Prior to testing at age 7-14 days, unmated insects were held individually in 5.5 oz. cups, provided with fresh potato foliage on a continuous basis, and maintained under incubator conditions of a 16:8 light:dark cycle, 80-90% R.H., and “day” and “night” temperatures of 25° C. and 23° C., respectively. On the day of testing, insects were transferred to smaller 1 oz. cups and held for 1-3 hrs with moist filter paper but no foliage, then held in darkness for an additional 1-2 hrs.
Individual testing in a darkened room at 22° C. began by allowing the beetle to climb onto or be placed approximately midway up the vertical rod of the “T.” In response to a positive phototaxis to light from a flashlight mounted above the “T” and negative geotaxis, the beetles generally climbed upward. Once the insect began waving its antennae, presumably in response to test odors, its forward progress continued. Orientation was scored as soon as the test insect had moved completely from the horizontal to one of the 45 extension arms of the bioassay device. Following each test, the bioassay device was cleaned with acetone to remove contamination left by the insect. For any given series of tests, approximately half were done with the treatment and associated test apparatus on one side, and half were done with them on the other side.
Laboratory bioassays were assessed for significant differences by the hypothesis on binomial proportions based on the standard normal approximation (Brase, C. H., and C. P. Brase (1983), Understanding Statistics, Lexington, Mass.: D. C. Heath).

SMILES: CC(C)=CCC[C@](C)(O)C(=O)CO [(S)-CPB I, (S)-3,7-dimethyl-2-oxo-oct-6-ene-1,3-diol]
- Mean number of CPB captured, Males ([1]; 500 μg CPB I/lure, mean of three replicates, 100 released, control 2.67): 9.00*
- Mean number of CPB captured, Females ([1]; 500 μg CPB I/lure, mean of three replicates, control 1.33): 7.33*
- Mean number of CPB captured, Total ([1]; combined mean of six replicates, control 2.00): 8.17**
- individuals attracted ([2]; both sexes, from threshold through highest source load tested (1 μg)): 80% to 90
- behavioral threshold, females ([2]; female CPB, vs solvent control): 0.01 μg source load
- behavioral threshold, males ([2]; male CPB, vs solvent control): 0.001 μg source load
- orientation preference (in words) [2]: attractive
- orientation preference (in words) ([2]; listed as (S)-enantiomer): oriented preferentially
